The source of these data is patent publication US4898878A, “Antioxidant thiohistidine compounds” (priority 1987, dated 1990).

The experiment deals with eggs. Briefly: Oxygen consumption by eggs. Format: cell-based, sea urchin. The text has this:
First, both ovothiol and NAD(P)H are intracellular metabolites, whereas ovoperoxidase is extracellular during the respiratory burst. […] Second, H2 02 is not released stoichiometrically by the ovoperoxidase-oxidase, so this cannot account for the significant concentrations of H2 02 previously detected at fertilization. Third, aminotriazole inhibits both the NAD(P)H oxidase and peroxidase activities of ovoperoxidase, yet has no effect on oxygen consumption by eggs.

In the case of `Nc1nc[nH]n1` [aminotriazole], the “effect on oxygen consumption by eggs” value is “no effect”.
